# Assay results from ChEMBL document CHEMBL3988181, “GlaxoSmithKline Published Kinase Inhibitor Set 2 Onchocerca lienalis Screening Data”.
# Values joined by “and” are separate entries in the source; they are usually repeats but may differ in a detail not shown here. Equal entries are not always repeated.
# Test: GSK PKIS2: Screen against O. lienalis microfilariae, single point, at 3.1uM to assess reduction in motility. Compounds were also tested for cytotoxicity against Rhesus Monkey LLCMK2 cells.
# Assay type: functional, Onchocerca lienalis, LLC-MK2
# Conditions: CELL_LINE LLCMK2, CELL_SUPPLIER ECACC, CONC 3.1 uM, ORGANISM_SUPPLIER Extracted from peri-umbilical skin obtained from naturally infected cattle in the UK, temperature 37 degree C
structure (smiles),measurement,setting,value
Cc1c2ccc(N(C)c3ccnc(Nc4cccc(S(N)(=O)=O)c4)n3)cc2nn1Cc1ccccc1,MOTILITY REDUCTION/CYTOTOXICITY,,0%
COc1ccc(Nc2nccc(N3CCC(NC(=O)c4cccc(C#N)c4)C3)n2)cc1 (centres undefined),MOTILITY REDUCTION/CYTOTOXICITY,,0%
O=c1[nH]cc(-c2ccc(N3CCOCC3)cc2)c2sc(-c3cn[nH]c3)cc12,MOTILITY REDUCTION/CYTOTOXICITY,,0%
CCn1c(-c2ccncc2)nc2cnccc21,MOTILITY REDUCTION/CYTOTOXICITY,,0%
Cc1ccc(NC(=O)Nc2cc(C(C)(C)C)nn2-c2ccccc2)cc1,MOTILITY REDUCTION/CYTOTOXICITY,,0%
Cn1cc(-c2ccc3c(c2)CCN3C(=O)Cc2cccc(C(F)(F)F)c2)c2c(N)ncnc21,MOTILITY REDUCTION/CYTOTOXICITY,,0%
NCCNS(=O)(=O)c1ccc(-c2ccnc3[nH]ccc23)cc1,MOTILITY REDUCTION/CYTOTOXICITY,,0%
Nc1nc(-c2ccccn2)c(-c2ccnc3ccccc23)s1,MOTILITY REDUCTION/CYTOTOXICITY,,0%
Cc1cccc(-c2cc(-c3c[nH]nc3-c3ccccn3)ccn2)c1,MOTILITY REDUCTION/CYTOTOXICITY,,0%
O=C1NC(=O)C(c2ccccc2Cl)=C1Nc1cccc(C(=O)O)c1,MOTILITY REDUCTION/CYTOTOXICITY,,0%
Fc1cccc(COc2ccc(Nc3ncnc4sc(-c5ccc[nH]5)cc34)cc2Cl)c1,MOTILITY REDUCTION/CYTOTOXICITY,,100%
C=CC(=O)Nc1cc2c(Nc3ccc(F)c(Cl)c3)ncnc2cc1OCCCN1CCOCC1 [CANERTINIB],MOTILITY REDUCTION/CYTOTOXICITY,,0%
CN1CCN(CCCNc2nccc(-c3c(-c4ccc(F)cc4)nn4cc(C(F)(F)F)ccc34)n2)CC1,MOTILITY REDUCTION/CYTOTOXICITY,,0%
c1ccc(Oc2ccc(Nc3ccnc4cc(-c5ccc(CN6CCNCC6)o5)ccc34)cc2)nc1,MOTILITY REDUCTION/CYTOTOXICITY,,0%
COc1ccc(Nc2nccc(N3CCC(NC(=O)c4cccc(NC(C)=O)c4)C3)n2)cc1 (centres undefined),MOTILITY REDUCTION/CYTOTOXICITY,,0%
Cc1csc(-c2nc(Nc3ccncc3)c3ccccc3n2)n1,MOTILITY REDUCTION/CYTOTOXICITY,,33.4%
Cc1cccc(-c2nc(Nc3ccc4ncsc4c3)c3ccccc3n2)n1,MOTILITY REDUCTION/CYTOTOXICITY,,100%
FC(F)(F)c1ccccc1-c1cc(-c2c[nH]nc2-c2ccccn2)ccn1,MOTILITY REDUCTION/CYTOTOXICITY,,0%
O=C(Nc1n[nH]c2nc(-c3ccco3)c(Br)cc12)C1CCN(Cc2ccccc2)C1 (centres undefined),MOTILITY REDUCTION/CYTOTOXICITY,,33.4%
COc1ccc(CNC(=O)NC2CCN(c3ccnc(Nc4ccc(OC)cc4)n3)C2)cc1 (centres undefined),MOTILITY REDUCTION/CYTOTOXICITY,,0%
Cc1n[nH]c2cc(Nc3ccnc(Nc4cccc(CN5CCOCC5)c4)n3)ccc12,MOTILITY REDUCTION/CYTOTOXICITY,,0%
COc1cc(Nc2ncc3c(C)nc(-c4cc5ccccc5[nH]4)n3n2)cc(OC)c1OC,MOTILITY REDUCTION/CYTOTOXICITY,,53.4%
O=c1cc(N2CCOCC2)nc2n(Cc3cccc(C(F)(F)F)c3)ccn12,MOTILITY REDUCTION/CYTOTOXICITY,,26.7%
NC(=O)c1cc(-c2ccccc2)cc2c(C3CCNCC3)c[nH]c12,MOTILITY REDUCTION/CYTOTOXICITY,,0%
Cc1ccc(Nc2ccnc(Nc3ccc4c(c3)CS(=O)(=O)C4)n2)cc1O,MOTILITY REDUCTION/CYTOTOXICITY,,80%
O=C(Nc1n[nH]c2nc(-c3cccc(O)c3)ccc12)C1CC1,MOTILITY REDUCTION/CYTOTOXICITY,,0%
CN(C)c1ncnc2nc[nH]c12 [DIMETHYLADENINE],MOTILITY REDUCTION/CYTOTOXICITY,,0%
Nc1cccc(-c2ccc3c(N)n[nH]c3c2)n1,MOTILITY REDUCTION/CYTOTOXICITY,,0%
COCCNC(=O)c1ccc(-c2cc(C(=O)NC3CC3)cc(F)c2C)cc1,MOTILITY REDUCTION/CYTOTOXICITY,,0%
CC(=O)c1cccc(NC(=O)NC2CCN(c3ccnc(Nc4ccc(F)cc4)n3)C2)c1 (centres undefined),MOTILITY REDUCTION/CYTOTOXICITY,,0%
NCCCC(NC(=O)c1cc(Br)c(-c2ccnc3[nH]ccc23)s1)c1ccccc1 (centres undefined),MOTILITY REDUCTION/CYTOTOXICITY,,0%
O=C1NC(=O)C(c2ccccc2Cl)=C1Nc1cccc(Cl)c1,MOTILITY REDUCTION/CYTOTOXICITY,,0%
COC(=O)Nc1nc2ccc(Oc3ccc(NC(=O)Nc4cc(C(F)(F)F)ccc4F)cc3)cc2n1C,MOTILITY REDUCTION/CYTOTOXICITY,,0%
Fc1cc(Cl)ccc1Nc1ccnc2cc(I)ccc12,MOTILITY REDUCTION/CYTOTOXICITY,,33.4%
O=C(Nc1n[nH]c2nc(-c3ccccc3O)ccc12)C1CC1,MOTILITY REDUCTION/CYTOTOXICITY,,0%
CSc1nn2c(=O)cc(N3CCOCC3)nc2n1Cc1cccc(C(F)(F)F)c1C,MOTILITY REDUCTION/CYTOTOXICITY,3.1 µM,16.7% and 0%
Fc1ccc(Nc2nccc(-c3c(-c4ccc(Cl)cc4)nn4ncccc34)n2)cc1F,MOTILITY REDUCTION/CYTOTOXICITY,,0%
Nc1ncnc2occ(-c3ccc4c(c3)CCN4C(=O)Cc3cc(F)ccc3F)c12,MOTILITY REDUCTION/CYTOTOXICITY,,16.7%
Cc1cccc(-c2nc(Nc3cccc(C(N)=O)c3)c3ccccc3n2)n1,MOTILITY REDUCTION/CYTOTOXICITY,,46.7%
Cc1cc(Nc2nc(-c3cccc(C)n3)nc3ccccc23)ccn1,MOTILITY REDUCTION/CYTOTOXICITY,,0%
C[C@@H](Oc1cc(-n2cnc3cc(-c4ccnc(NCCS(C)(=O)=O)c4)ccc32)sc1C(N)=O)c1ccccc1Cl,MOTILITY REDUCTION/CYTOTOXICITY,,53.4%
CN(C)S(=O)(=O)c1cc(-c2ccc3nccc(-c4cccc(S(N)(=O)=O)c4)c3c2)cnc1N,MOTILITY REDUCTION/CYTOTOXICITY,,60%
COc1cc2ncn(-c3cc(OCC4CCCCC4)c(C(N)=O)s3)c2cc1OC,MOTILITY REDUCTION/CYTOTOXICITY,,33.4%
Fc1cc(Cl)ccc1Nc1ccnc2cc(-c3ccc(CN4CCCCC4)o3)ccc12,MOTILITY REDUCTION/CYTOTOXICITY,,16.7%
Fc1ccc(-c2ncn(CCCN3CCOCC3)c2-c2cccnc2)cc1,MOTILITY REDUCTION/CYTOTOXICITY,,0%
CCn1c(-c2nonc2N)nc2ccccc21 [GW549034X],MOTILITY REDUCTION/CYTOTOXICITY,,0%
c1ccc(-c2ccnc3[nH]ccc23)cc1,MOTILITY REDUCTION/CYTOTOXICITY,,33.4%
NCC(NCc1ccc(-c2ccnc3[nH]ccc23)s1)c1ccccc1 (centres undefined),MOTILITY REDUCTION/CYTOTOXICITY,,0%
c1ccc(Oc2ccc(Nc3ccnc4ccc(-c5ccccn5)cc34)cc2)cc1,MOTILITY REDUCTION/CYTOTOXICITY,,0%
NCC(NC(=O)c1cc(-c2cccnc2)c(-c2ccnc3[nH]ccc23)s1)c1ccccc1 (centres undefined),MOTILITY REDUCTION/CYTOTOXICITY,,0%
Cc1ccc(NC(=O)Nc2ccc(Cl)cc2)cc1-c1ccc(C(=O)Nc2ccncc2)cc1,MOTILITY REDUCTION/CYTOTOXICITY,,86.7%
O=C(Nc1n[nH]c2cc(-c3ccoc3)ccc12)C1CC1,MOTILITY REDUCTION/CYTOTOXICITY,,13.4%
O=C(Nc1ccccc1F)NC1CCN(c2ccnc(Nc3ccc(F)cc3)n2)CC1,MOTILITY REDUCTION/CYTOTOXICITY,,53.4%
COc1ccccc1CNC(=O)c1cc(C(=O)c2ccccc2C)c[nH]1,MOTILITY REDUCTION/CYTOTOXICITY,,86.7%
